The source of these data is ChEMBL document CHEMBL1123414, “Neurochemistry of aging. 1. Toxins for an animal model of Alzheimer's disease” (J Med Chem, 1986).

The structures appear in SMILES notation.

The term IC50 denotes the concentration needed to halve the response being measured.

Assay [1] concerns the target T1, High affinity choline transporter 1 (Mus musculus, UniProt Q8BGY9).
T1 sequence (Q8BGY9 whole entry): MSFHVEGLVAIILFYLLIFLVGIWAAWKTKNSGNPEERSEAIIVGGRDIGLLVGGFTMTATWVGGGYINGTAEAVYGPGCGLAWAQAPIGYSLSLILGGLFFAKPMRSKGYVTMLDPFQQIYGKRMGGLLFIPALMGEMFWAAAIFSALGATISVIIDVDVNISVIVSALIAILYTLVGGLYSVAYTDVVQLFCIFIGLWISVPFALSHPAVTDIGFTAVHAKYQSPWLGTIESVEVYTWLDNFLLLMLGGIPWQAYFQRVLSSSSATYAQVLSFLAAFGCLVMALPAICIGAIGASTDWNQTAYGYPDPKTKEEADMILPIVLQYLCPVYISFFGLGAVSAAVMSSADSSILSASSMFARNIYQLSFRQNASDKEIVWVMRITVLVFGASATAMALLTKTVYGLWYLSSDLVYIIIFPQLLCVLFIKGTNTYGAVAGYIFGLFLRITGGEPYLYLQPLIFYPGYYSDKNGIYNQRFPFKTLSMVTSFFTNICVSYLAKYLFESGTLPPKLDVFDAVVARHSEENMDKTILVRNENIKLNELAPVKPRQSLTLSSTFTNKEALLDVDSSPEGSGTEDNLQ
The assay is described as follows: In vitro ability to inhibit the transport of [3H]choline in to high affinity choline transport system HAChT.

The target of assay [2] is Muscarinic acetylcholine receptor M3 (Rattus norvegicus) (UniProt P08483). The assay is described as follows: Compound was tested in vitro for its ability to displace [3H]-QNB from brain Muscarinic acetylcholine receptor.
Sequence of Muscarinic acetylcholine receptor M3 (Rattus norvegicus) (P08483 whole entry, looked up): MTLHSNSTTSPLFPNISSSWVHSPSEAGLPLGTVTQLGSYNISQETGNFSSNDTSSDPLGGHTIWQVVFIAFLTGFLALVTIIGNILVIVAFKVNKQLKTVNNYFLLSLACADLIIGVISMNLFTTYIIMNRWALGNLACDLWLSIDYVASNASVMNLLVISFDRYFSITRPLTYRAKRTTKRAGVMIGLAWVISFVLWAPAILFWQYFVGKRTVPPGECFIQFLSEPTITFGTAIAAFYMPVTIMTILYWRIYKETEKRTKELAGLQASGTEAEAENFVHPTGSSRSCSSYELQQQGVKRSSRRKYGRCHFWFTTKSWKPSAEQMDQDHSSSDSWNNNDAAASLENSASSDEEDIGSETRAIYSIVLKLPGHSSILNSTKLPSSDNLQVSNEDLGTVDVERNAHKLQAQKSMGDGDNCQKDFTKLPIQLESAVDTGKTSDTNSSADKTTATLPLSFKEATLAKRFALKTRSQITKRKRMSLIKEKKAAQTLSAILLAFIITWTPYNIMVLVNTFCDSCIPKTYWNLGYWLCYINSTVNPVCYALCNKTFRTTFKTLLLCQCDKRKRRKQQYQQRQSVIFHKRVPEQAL

With `C[N+](C)(C)CCO` [CHOLINE], in assay [1], the IC50 came out at 1.6 µM.

For the molecule `CCCC[N+]1(CCO)CC1`, the IC50 in assay [1] was > 1000 µM. The same molecule came in with a Displacement in assay [2] of 9%.

`CCC[N+]1(CCO)CC1` gave an IC50 in assay [1] of 7.5 µM. Moreover, the Displacement in assay [2] amounted to 16%.

For the molecule `CC[N+]1(CCO)CC1`, half-maximal inhibition in assay [1] (IC50) required 1.5 µM. In assay [2], this molecule showed a Displacement of 18%.

Molecule `CC(C)C[N+]1(CCO)CC1` yielded an IC50 in assay [1] of 31 µM. Besides, the Displacement in assay [2] came to 6%.
